Laboratory results from patent US20240246968A1, “SMALL MOLECULE INHIBITORS OF KRAS G12C MUTANT” (Merck Sharp & Dohme LLC, priority 2021, published 2024).

What was measured:
[1] = target: Gppcp-bound recombinant K-Ras4B G12C mutant protein (amino acids 1-169, C51S/C80L/C118S) (Homo sapiens, UniProt P01116, C118S/C51S/C80L/G12C); assay: KRASG12C binding assay (LC-MS, compound binding rate); conditions: test compound final concentration 0.5 μM, 25° C., 1 hour
Experimental: As test compounds for the KRASG12C binding assay, the compounds obtained in the “Preparation of Compounds” section were used. Sample solutions each containing a test compound were prepared in the form of a 10 mM DMSO solution.
Gppcp-bound recombinant K-Ras4B G12C mutant protein (amino acids 1-169, C51S/C80L/C118S, SEQ ID NO:1) was diluted with a buffer (1×TBS, 0.1 mM TCEP, 0.25 mM MgCl2, 50 μM Gppcp) to prepare a 50 nM protein solution. K-Ras4B is the major splicing variant of K-Ras. Amino acid sequence of residues 1 to 150 including the compounds' binding region of K-Ras4B is exactly same as that of K-Ras4A, the other splicing variant (Oncotarget. 2016 Jul. 19; 7(29): 46717-46733). A sample solution containing 10 mM test compound was diluted ten-fold with DMSO to make a 1 mM sample solution, and then diluted twenty-fold with DMSO to make a 50 μM sample solution. 1 μL of a 50 μM sample solution was added to 100 μL of a 50 nM protein solution to adjust the final concentration of a test compound to be 0.5 μM in the mixture. The mixtures were stored in an incubator at 25° C. for 1 hour, and 10 μL of a 1×TBS solution containing 2% formic acid was added to stop the reaction, followed by LC-MS measurement. LC-MS measurement was performed using Xevo G2-S Q-Tof manufactured by Waters, and reverse-phase chromatography was performed with a desalting column. A mass spectrum of positive ions was obtained by electrospray. For a mass spectrum, a spectrum of polyvalent ions was collectively converted to a molecular weight by using OpenLynx software by the MaxEnt technique, and a compound binding rate was calculated from the ratio of the signal intensity of a peak that corresponds to the molecular weight of the protein to the signal intensity of a peak that corresponds to the molecular weight of the protein conjugated with the compound.
The binding assay of the test compounds was conducted at a final concentration of 0.5 μM. A binding rate of 80% or more is rated “A”, a binding rate of 60% or more and less than 80% is rated “B”, a binding rate of 40% or more and less than 60% is rated “C”, a binding rate of 20% or more and less than 40% is rated “D”, and a binding rate of less than 20% is rated “E”. N.D.=not determined. Binding rate % is the ratio of KRAS signal intensity at the molecular weight of one molecule adduct to the sum of all the KRAS signal intensity (unbound form and adducts) in mass spectrum. Thus, binding rate 100% means that only the one molecule adduct was observed without any unbound KRAS. The following tables show the results.

[2] = target: T1, interaction between recombinant K-Ras4B G12C mutant protein and cRAF RAS-binding domain (cRAF-RBD) (Homo sapiens, UniProt P01116, G12C); assay: Inhibitory activity on interaction between KRAS G12C and cRAF (Alpha technology); assay type: biochemical; conditions: GMPPNP-bound KRAS G12C incubated with compound at 25° C. for 1 hour, then cRAF-RBD; Alpha signal
T1 construct: made in house; host or cells: E. coli
Experimental: Interaction between recombinant K-Ras4B G12C mutant protein (amino acids 1-169, SEQ ID NO:2) and cRAF RAS-binding domain (cRAF-RBD, amino acids 50-132, Jena Biosciences GmbH) was measured using Alpha technology (PerkinElmer Inc.).
Recombinant KRAS G12C protein with an N-terminal His-tag was expressed in E. coli and purified by affinity chromatography. To prepare GTP-bound form and GDP-bound form of KRAS G12C protein. 50 μM KRAS G12C protein was incubated with 1 mM GMPPNP (Guanosine-5′-[(β,γ)-imido]triphosphate. Tetralithium salt)(Jena Bioscience GmbH) and 1 mM GDP, respectively, in a loading buffer (20 mM Tris-HCl (pH 7.5), 50 mM NaCl, 1 mM DTT and 2.5 mM EDTA) for 1 hour on ice. After the incubation, MgCl2 was added to a final concentration of 10 mM, followed by incubation at room temperature for 30 minutes. The mixture was allowed to pass through a NAP-5 column to remove free nucleotides and purified, and the resultant nucleotide-bound KRAS G12C protein was used for compound evaluation.
For the measurement of the inhibitory activity of compounds on interaction between KRAS G12C and cRAF-RBD, GMPPNP-bound KRAS G12C protein was incubated with various concentrations of compound in a reaction buffer (20 mM Tris-HCl (pH 7.5), 100 mM NaCl, 1 mM MgCl2, 1 mM TCEP. 0.1% Tween 20) at 25° C. for 1 hour. After the incubation, recombinant cRAF-RBD and Alpha detection reagents were added and incubated at room temperature for 1.5 hours for binding. Interaction of KRAS G12C and cRAF-RBD was monitored by measuring Alpha signal. Inhibition % was calculated using the signal from the reaction without test compound (DMSO control) as 0% inhibition and the signal from the reaction using GDP-bound KRAS G12C in place of GMPPNP-bound KRAS G12C as 100% inhibition. IC50 values were calculated from dose titration curve using curve fitting by XLfit software (IDBS). The following tables show the results.

MIA PaCa-2 cells = assay: Growth inhibition activity on KRAS-G12C mutant cell line (MIA PaCa-2), CellTiter-Glo 3D; assay type: cell-based, human; conditions: MIA PaCa-2, 3-day culture with compound
Experimental: MIA PaCa-2 cells (given by Sumitomo Dainippon Pharma Co., Ltd.), which are a KRAS-G12C mutant human pancreas cancer cell line, were suspended in a 10% fetal bovine serum-containing RPMI1640 medium (manufactured by Fujifilm Wako Pure Chemical Corporation.). The cell suspension was seeded into each well of a 384-well U bottom microplate and cultured in an incubator containing 5% CO2 gas at 37° C. for 1 day. The compounds obtained in the “Preparation of Compounds” section were used as test compounds and were dissolved in DMSO, respectively, and each test compound was diluted with DMSO to give a concentration 500 times the final concentration. The resultant solution of the test compound in DMSO was diluted with the medium used for suspending cells and added to each well of the cell-culture plate to give a DMSO final concentration of 0.2%, followed by culture in an incubator containing 5% CO2 gas at 37° C. for another 3 days. The cell count after 3-day culture in the presence of the test compound was measured using CellTiter-Glo 3D Reagent (manufactured by Promega Corporation). All wells were added with CellTiter-Glo 3D Reagent and mixed for 10 minutes. 30 minutes after mixing, luminescence was measured by a plate reader. The growth inhibition rate was calculated from the following equation, and the concentration of the test compound at which 50/o inhibition was achieved (IC50 (nM)) was determined. The following tables show the results.
[formula] • T: the emission intensity in a well into which a test compound was added. • C: the emission intensity in a well into which a test compound was not added.

SMILES | binding rate [1] | IC50 [2] | IC50 (MIA PaCa-2 cells) | IC50 (MIA PaCa-2 cells; Homo sapiens, MIA PaCa-2, 72 h)
Cc1cc2c(ncn2C)c(Cl)c1-c1cccn2c(C(=O)c3cc(F)c(NC(=O)/C=C/CNC4CCOCC4)c(F)c3)ccc12 (single isomer, unassigned) [Example 27-1, (E)-N-(4-(8-(4-chloro-1,6-dimethyl-1H-benzo[d]imidazol-5-yl)indolizine-3-carbonyl)-2,6-difluorophenyl)-4-((tetrahydro-2H-pyran-4-yl)amino)but-2-enamide] | A (A binding rate of 80% or more is rated “A”) | 25 nM | 120 nM | –
Cc1nc2cc(-c3cccn4c(C(=O)c5cc(F)c(NC(=O)/C=C/CNC6CC7CCC(C6)O7)c(F)c5)ccc34)c(C(F)(F)F)cc2n1C (stereo not drawn) [Example 79, (E)-4-((8-oxabicyclo[3.2.1]octan-3-yl)amino)-N-(4-(8-(1,2-dimethyl-6-(trifluoromethyl)-1H-benzo[d]imidazol-5-yl)indolizine-3-carbonyl)-2,6-difluorophenyl)but-2-enamide] | A (A binding rate of 80% or more is rated “A”) | 61 nM | – | 110 nM
COCC(C)(C)NC/C=C/C(=O)Nc1c(F)cc(C(=O)c2ccc3c(-c4cc5ncn(C)c5cc4C(F)(F)F)cccn23)cc1F [Example 8] | A (A binding rate of 80% or more is rated “A”) | 89 nM | – | 130 nM
Cc1nc2cc(-c3cccn4c(C(=O)c5cc(F)c(NC(=O)/C=C/CN[C@@H]6CCOC6)c(F)c5)ccc34)c(C(F)(F)F)cc2n1C [Example 91] | A (A binding rate of 80% or more is rated “A”) | 75 nM | – | 100 nM
COc1cc2c(cc1-c1cccn3c(C(=O)c4cc(F)c(NC(=O)/C=C/CNC(C)(C)C)c(F)c4)ccc13)nc(C)n2C [Example 5, (E)-4-(tert-butylamino)-N-(2,6-difluoro-4-(8-(6-methoxy-1,2-dimethyl-1H-benzo[d]imidazol-5-yl)indolizine-3-carbonyl)phenyl)but-2-enamide] | A (A binding rate of 80% or more is rated “A”) | 75 nM | – | 45 nM
COc1cc2c(cc1-c1cccn3c(C(=O)c4cc(F)c(NC(=O)/C=C/CN[C@H]5CC[C@H](OC)CC5)c(F)c4)ccc13)ncn2C [Example 1, (E)-N-(2,6-difluoro-4-(8-(6-methoxy-1-methyl-1H-benzo[d]imidazol-5-yl)indolizine-3-carbonyl)phenyl)-4-(((1r,4r)-4-methoxycyclohexyl)amino)but-2-enamide] | A (A binding rate of 80% or more is rated “A”) | 58 nM | – | 91 nM
CO[C@H](C)c1nc2c(Cl)c(-c3cccn4c(C(=O)c5cc(F)c(NC(=O)/C=C/CN[C@H]6CC[C@H](OC)CC6)c(F)c5)ccc34)c(C)cc2n1C (single isomer, unassigned) [Example 47] | A (A binding rate of 80% or more is rated “A”) | 16 nM | 75 nM | –
COc1c(-c2cc(F)cn3c(C(=O)c4cc(F)c(NC(=O)/C=C/CNC5(C)CC5)c(F)c4)cnc23)c(C(F)(F)F)cc2c1nc(C)n2C (single isomer, unassigned) [Example 112-2, (E)-N-(2,6-difluoro-4-(6-fluoro-8-(4-methoxy-1,2-dimethyl-6-(trifluoromethyl)-1H-benzo[d]imidazol-5-yl)imidazo[1,2-a]pyridine-3-carbonyl)phenyl)-4-((1-methylcyclopropyl)amino)but-2-enamide] | A (A binding rate of 80% or more is rated “A”) | 362 nM | 532 nM | –
Cc1cc2c(nc([C@@H](C)O)n2C)c(Cl)c1-c1cccn2c(C(=O)c3cc(F)c(NC(=O)/C=C/CNC(C)(C)C)c(F)c3)ccc12 [Example 98, (R,E)-4-(tert-butylamino)-N-(4-(8-(4-chloro-2-(1-hydroxyethyl)-1,6-dimethyl-1H-benzo[d]imidazol-5-yl)indolizine-3-carbonyl)-2,6-difluorophenyl)but-2-enamide] | A (A binding rate of 80% or more is rated “A”) | 41 nM | – | 42 nM
CO[C@H]1CC[C@H](NC/C=C/C(=O)Nc2c(F)cc(C(=O)c3ccc4c(-c5c(C(F)(F)F)cc6c(nc(C)n6C)c5Cl)cccn34)c(F)c2F)CC1 [Example 104, (E)-N-(4-(8(4-chloro-1,2-dimethyl-6-(trifluoromethyl)-1H-benzo[d]imidazol-5-yl)indolizine-3-carbonyl)-2,3,6-trifluorophenyl)-4-(((1r,4r)-4-methoxycyclohexyl)amino)but-2-enamide] | A (A binding rate of 80% or more is rated “A”) | 78.9 nM | – | 90.4 nM
Cc1cc2c(ncn2C)c(Cl)c1-c1cccn2c(C(=O)c3cc(F)c(NC(=O)/C=C/CNC(C)(C)C)c(F)c3)ccc12 (single isomer, unassigned) [Example 13-1, (E)-4-(tert-butylamino)-N-(4-(8-(4-chloro-1,6-dimethyl-1H-benzo[d]imidazol-5-yl)indolizine-3-carbonyl)-2,6-difluorophenyl)but-2-enamide] | A (A binding rate of 80% or more is rated “A”) | 46 nM | 32 nM | –
